Source: patent US8673594B2, “Methods for stimulating nervous system regeneration and repair by regulating arginase I and polyamine synthesis” (Research Foundation of City University of New York, priority 2000, dated 2014)
One block for each molecule: values may come before it.

Tested on: Arg I RNA in cerebellar neurons
Experiment: Arginase I RNA level in cerebellar neurons by RT-PCR and quantitative PCR
Format: cell-based
Settings: overnight dbcAMP 1 mM or BDNF 200 ng/ml; P<0.005
Description: FIG. 4: Priming Neurons With Brain Derived Neurotrophic Factor (BDNF) or Dibutyryl (db) cAMP Up-Regulates Arginase I RNA Levels In Cerebellar Neurons. RNA isolated from cerebellar neurons without treatment (lane 2), from cerebellar neurons exposed overnight to either BDNF (200 ng/ml) (lane 3) or dbcAMP (1 mM) (lane 4), was reverse, transcribed and subjected to (A) semi-quantitative PCR; or (B) quantitative PM; using primers specific for arginase I. As a positive control, RNA isolated from liver tissue was subjected to RT PCR and quantitative PCR procedures using the same primers ((A), lane 1; (B), “Liver”)
To determine whether elevated cAMP levels causes an up-regulation of arginase expression, cerebellar neurons were primed with neurotrophins (BDNF) or dbcAMP (Example 1), and RNA and protein was extracted from primed neurons (Example 2). The extracted RNA was used as a template for reverse transcription and PCR amplification using primers specific for the gene encoding the enzyme arginase I (“Arg I”), an isoform of arginase abundant in liver tissue but barely detectable in other tissues.
Cerebellar neurons were primed with neurotrophins (BDNF, GDNF) or dbcAMP according to the procedures in Example 1. […]
Finally, ArgI amplified cDNA samples were detected by electrophoretic separation on a 1% agarose gel and staining with ethidium bromide.

Molecule: CCCC(=O)Nc1ncnc2c1ncn2[C@@H]1O[C@@H]2COP(=O)(O)O[C@H]2[C@H]1OC(=O)CCC [dbcAMP, dibutyryl cAMP]
increase in amount of Arg I RNA by quantitative PCR: about 50%

increase in amount of Arg I RNA by quantitative PCR: about 50%
B1: BDNF: Brain-derived neurotrophic factor, Trk-family neurotrophin (protein, UniProt P23560 19-247, looked up)
Neurotrophic factor BDNF …: APMKEANIRGQGGLAYPGVRTHGTLESVNGPKAGSRGLTSLADTFEHVIEELLDEDQKVRPNEENNKDADLYTSRVMLSSQVPLEPPLLFLLEEYKNYLDAANMSMRVRRHSDPARRGELSVCDSISEWVTAADKKTAVDMSGGTVTVLEKVPVSKGQLKQYFYETKCNPMGYTKEGCRGIDKRHWNSQCRTTQSYVRALTMDSKKRIGWRFIRIDTSCVCTLTIKRGR
